# From the supplement of paper PMC11061612
# How the values were obtained:
# [1] = compound: C1CN(CCC1(C(=O)N[C@@H](CCO)C2=CC=C(C=C2)Cl)N)C3=NC=NC4=C3C=CN4 [Capivasertib]; details: max 10 µM
# How it was run: (§1)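 Cancer cell lines were dosed for 72 hours (final DMSO typically 0.2%) after 24 hours at 37°C and 5% CO2 in 1536-well plates containing 7.5 μl DMEM/F12 or RPMI with 10% FBS. Viability came from CellTiter-Glo 2.0 luminescence, scaled between blank-well and DMSO-well means, and dose responses were fitted to a two-parameter logistic curve with a non-linear mixed effects model. The single-agent IC50 was obtained from this fit.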
# [2] = compound: C=CCn1c(=O)c2cnc(Nc3ccc(N4CCN(C)CC4)cc3)nc2n1-c1cccc(C(C)(C)O)n1 [AZD1775]; details: max 3 µM
# How it was run: as §1
# [3] = compound: CC(=O)Nc1cccc(-n2c(=O)n(C3CC3)c(=O)c3c(Nc4ccc(I)cc4F)n(C)c(=O)c(C)c32)c1 [Trametinib]; details: max 1 µM
# How it was run: as §1
# [4] = compound: CC(=O)c1c(C)c2cnc(Nc3ccc(N4CCNCC4)cn3)nc2n(C2CCCC2)c1=O [Palbociclib]; details: max 10 µM
# How it was run: as §1
# [5] = compound: CC(C)n1c(=O)n(C)c2cnc3cc(F)c(-c4ccc(OCCCN5CCCCC5)nc4)cc3c21 [AZD1390]; details: max 0.3 µM
# How it was run: as §1
# [6] = compound: CC1(C)CCC(CN2CCN(c3ccc(C(=O)NS(=O)(=O)c4ccc(NCC5CCOCC5)c([N+](=O)[O-])c4)c(Oc4cnc5[nH]ccc5c4)c3)CC2)=C(c2ccc(Cl)cc2)C1 [Venetoclax]; details: max 1 µM
# How it was run: as §1
# [7] = compound: CC1=C(C(=CC=C1)Cl)NC(=O)C2=CN=C(S2)NC3=CC(=NC(=N3)C)N4CCN(CC4)CCO [Dasatinib]; details: max 2 µM
# How it was run: as §1
# [8] = compound: CC1=CN2[C@@H](C1)C=NC3=CC(=C(C=C3C2=O)OC)OCCCCCOC4=C(C=C5C(=C4)N=C[C@@H]6CC(=CN6C5=O)C)OC [SG3199]; details: max 0.001 µM
# How it was run: as §1
# [9] = compound: CCN(CCO)CCCOc1ccc2c(Nc3cc(CC(=O)Nc4cccc(F)c4)[nH]n3)ncnc2c1 [AZD2811]; details: max 1 µM
# How it was run: as §1
# [10] = compound: CCc1c2c(nc3ccc(O)cc13)-c1cc3c(c(=O)n1C2)COC(=O)[C@]3(O)CC [SN-38]; details: max 0.3 µM
# How it was run: as §1
# [11] = compound: CN(C)CCCOc1ccc(-c2ccc3ncc4c(c3c2)n(C2CCOCC2)c(=O)n4C)cn1 [AZD0156]; details: max 3 µM
# How it was run: as §1
# [12] = compound: CN(CC[C@H](CSC1=CC=CC=C1)NC2=C(C=C(C=C2)S(=O)(=O)NC(=O)C3=CC=C(C=C3)N4CCC(CC4)[C@H](C5=CC=CC=C5C6=CC=C(C=C6)Cl)O)S(=O)(=O)C(F)(F)F)CCO [AZD4320]; details: max 1 µM
# How it was run: as §1
# [13] = compound: COc1cc(Nc2ncc3c(n2)-c2ccc(Cl)cc2C(c2c(F)cccc2OC)=NC3)ccc1C(=O)O [Alisertib]; details: max 10 µM
# How it was run: as §1
# [14] = compound: COc1cc2ncnc(Nc3ccc(F)c(Cl)c3)c2cc1OCCCN1CCOCC1 [Gefitinib]; details: max 10 µM
# How it was run: as §1
# [15] = compound: COc1cccc(OCCCN)c1-c1cc(Nc2cnc(C#N)cn2)n[nH]1 [Prexasertib]; details: max 1 µM
# How it was run: as §1
# [16] = compound: COc1cccc2c1C(=O)c1c(O)c3c(c(O)c1C2=O)C[C@@](O)(C(=O)CO)C[C@@H]3O[C@H]1C[C@H](N)[C@H](O)[C@H](C)O1 [Doxorubicin]; details: max 1 µM
# How it was run: as §1
# [17] = compound: COc1nnc2ccc(N3CCC(c4ccc(OCCN5CCN(C)C(=O)[C@H]5C)cc4)CC3)nn12 [AZD5153]; details: max 1 µM
# How it was run: as §1
# [18] = compound: CS(=O)(=O)CCNCc1ccc(-c2ccc3ncnc(Nc4ccc(OCc5cccc(F)c5)c(Cl)c4)c3c2)o1 [Lapatinib]; details: max 10 µM
# How it was run: as §1
# [19] = compound: C[C@@H](Nc1cc(F)cc(F)c1)c1cc(C(=O)N(C)C)cc2c(=O)cc(N3CCOCC3)oc12 [AZD8186]
# How it was run: as §1
# [20] = compound: C[C@@H](Oc1cc(-c2cnn(C3CCNCC3)c2)cnc1N)c1c(Cl)ccc(F)c1Cl [Crizotinib]; details: max 10 µM
# How it was run: as §1
# [21] = compound: C[C@@H](c1ccc2nccn2c1)n1nnc2ncc(-c3cnn(C)c3)nc21 [Savolitinib]; details: max 1 µM
# How it was run: as §1
# [22] = compound: C[C@@H]1COCCN1C2=NC(=NC(=C2)C3(CC3)[S@](=N)(=O)C)C4=C5C=CNC5=NC=C4 [AZD6738]; details: max 10 µM
# How it was run: as §1
# [23] = compound: Cc1c2c(nn1C)CSCc1cc(n(C)n1)CSc1cc(c3ccccc3c1)OCCCc1c(C(=O)O)n(C)c3c-2c(Cl)ccc13 [AZD5991]; details: max 1 µM
# How it was run: as §1
# [24] = compound: Cc1cc2ncnn2cc1Nc1ncc2c(n1)n(C1CCOCC1)c(=O)n2C [AZD7648]; details: max 10 µM
# How it was run: as §1
# [25] = compound: Cc1nc(-c2cn3c(n2)-c2ccc(-c4cnn(C(C)(C)C(N)=O)c4)cc2OCC3)n(C(C)C)n1 [Taselisib]; details: max 10 µM
# How it was run: as §1
# [26] = compound: Cn1cnc2c(F)c(Nc3ccc(Br)cc3Cl)c(C(=O)NOCCO)cc21 [Selumetinib]; details: max 10 µM
# How it was run: as §1
# [27] = compound: O=C(c1cc(Cc2n[nH]c(=O)c3ccccc23)ccc1F)N1CCN(C(=O)C2CC2)CC1 [Olaparib]; details: max 10 µM
# How it was run: as §1
# [28] = compound: C1CC(C1)(C(=O)[O-])C(=O)[O-].N.N.[Pt+2] [Carboplatin]; details: max 10 µM
# How it was run: as §1
# [29] = compound: C1CN(CCC1(C(=O)N[C@@H](CCO)C2=CC=C(C=C2)Cl)N)C3=NC=NC4=C3C=CN4 [AZD5363]; details: max 10 µM
# How it was run: as §1
# [30] = compound: CC(=O)O[C@H]1C(=O)[C@@]2(C)[C@H]([C@H](OC(=O)c3ccccc3)[C@]3(O)C[C@H](OC(=O)[C@H](O)[C@@H](NC(=O)c4ccccc4)c4ccccc4)C(C)=C1C3(C)C)[C@]1(OC(C)=O)CO[C@@H]1C[C@@H]2O [Paclitaxel]; details: max 3 µM
# How it was run: as §1
# [31] = compound: COc1cc([C@@H]2c3cc4c(cc3[C@@H](O[C@@H]3O[C@@H]5CO[C@@H](C)O[C@H]5[C@H](O)[C@H]3O)[C@H]3COC(=O)[C@H]23)OCO4)cc(OC)c1O [Etoposide]; details: max 10 µM
# How it was run: as §1
# [32] = compound: N#Cc1cnc(Nc2cc(NC[C@H]3CNCCO3)c(C(F)(F)F)cn2)cn1 [SRA737]; details: max 10 µM
# How it was run: as §1
# [33] = compound: NC1(c2ccc(-c3nc4ccn5c(=O)[nH]nc5c4cc3-c3ccccc3)cc2)CCC1 [MK-2206]; details: max 10 µM
# How it was run: as §1
# [34] = compound: Nc1ccn([C@@H]2O[C@H](CO)[C@@H](O)C2(F)F)c(=O)n1 [Gemcitabine]; details: max 0.3 µM
# How it was run: as §1
# [35] = compound: O=C(Nc1ccc2[nH]nc(-c3ccncc3)c2c1)[C@@H]1CCN(CC(=O)N2CCN(c3ccc(-c4ncccn4)cc3)CC2)C1; details: max 5 µM
# How it was run: as §1
# [36] = compound: O=c1[nH]cc(F)c(=O)[nH]1 [5-Fluorouracil]; details: max 20 µM
# How it was run: as §1
Cell Line,"IC50, cell viability 72 h [1]","IC50, cell viability 72 h [2]","IC50, cell viability 72 h [3]","IC50, cell viability 72 h [4]","IC50, cell viability 72 h [5]","IC50, cell viability 72 h [6]","IC50, cell viability 72 h [7]","IC50, cell viability 72 h [8]","IC50, cell viability 72 h [9]","IC50, cell viability 72 h [10]","IC50, cell viability 72 h [11]","IC50, cell viability 72 h [12]","IC50, cell viability 72 h [13]","IC50, cell viability 72 h [14]","IC50, cell viability 72 h [15]","IC50, cell viability 72 h [16]","IC50, cell viability 72 h [17]","IC50, cell viability 72 h [18]","IC50, cell viability 72 h ([19]; max 3 µM)","IC50, cell viability 72 h [20]","IC50, cell viability 72 h [21]","IC50, cell viability 72 h [22]","IC50, cell viability 72 h [23]","IC50, cell viability 72 h [24]","IC50, cell viability 72 h [25]","IC50, cell viability 72 h [26]","IC50, cell viability 72 h [27]","IC50, cell viability 72 h [28]","IC50, cell viability 72 h [29]","IC50, cell viability 72 h [30]","IC50, cell viability 72 h [31]","IC50, cell viability 72 h ([19]; max 10 µM)","IC50, cell viability 72 h [32]","IC50, cell viability 72 h [33]","IC50, cell viability 72 h [34]","IC50, cell viability 72 h [35]","IC50, cell viability 72 h [36]"
GDM-1 (Acute Myeloid Leukemia),8680 nM,435 nM,> 1000 nM,8090 nM,> 300 nM,392 nM,9.37 nM,> 1 nM,65.6 nM,4.15 nM,> 3000 nM,83.4 nM,123 nM,> 10000 nM,40.2 nM,326 nM,64.8 nM,> 10000 nM,1940 nM,1160 nM,> 1000 nM,7150 nM,> 1000 nM,5190 nM,121 nM,> 10000 nM,> 10000 nM,,,,,,,,,,
HCC-827 (Lung Adenocarcinoma),> 10000 nM,> 3000 nM,> 1000 nM,> 10000 nM,> 300 nM,> 1000 nM,130 nM,> 1 nM,> 1000 nM,> 300 nM,> 3000 nM,> 1000 nM,> 10000 nM,84.2 nM,465 nM,> 1000 nM,> 1000 nM,3000 nM,> 3000 nM,> 10000 nM,> 1000 nM,> 10000 nM,> 1000 nM,> 10000 nM,8540 nM,> 10000 nM,> 10000 nM,,,,,,,,,,
SNG-M (Endometrial Carcinoma),,874 nM,> 1000 nM,> 10000 nM,> 300 nM,> 1000 nM,259 nM,> 1 nM,> 1000 nM,153 nM,> 3000 nM,> 1000 nM,2440 nM,> 10000 nM,23.1 nM,> 1000 nM,> 1000 nM,> 10000 nM,,> 10000 nM,> 1000 nM,1310 nM,> 1000 nM,> 10000 nM,3820 nM,> 10000 nM,> 10000 nM,> 10000 nM,> 10000 nM,6.87 nM,> 10000 nM,> 10000 nM,5190 nM,> 10000 nM,33 nM,> 5000 nM,> 20000 nM
